The record followed here is ChEMBL document CHEMBL1201862, “PubChem BioAssay data set” (2004).

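Protocol summary: plate cells (96-well), add compound at 5 concentrations, incubate 48 h, interpolate endpoints linearly. Abbreviation: GI50, concentration required for 50% inhibition of growth.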 Calls of active or inactive are those of the source. Rule as the data show it: active = GI50 up to about 1.1 µM and inactive = higher.

Some test systems named below: NCI-H522; SNB-78; U-251; SNB-19; SNB-75; SW-620; SN12C; SK-MEL-28; K562; SF-295; SK-MEL-2; HT-29; CAKI-1; HOP-62; A498; M14; NCI/ADR-RES; MDA-N; MCF7; MDA-MB-435.
Holding throughout (test): NCI tumour cell line growth inhibition, 48 h

Regarding `CCOC(=O)N1CCC(=O)C[C@@H]1C/C=C/P1(=O)O[C@H](c2ccccc2)C(C)N1C(C)C` (some centres undefined), the GI50 in the assay with NCI-H522, in the assay with SNB-78, in the assay with U-251, in the assay with SNB-19, in the assay with SNB-75 and in the assay on SW-620 was > 100 µM (inactive) in each case. Moreover, the GI50 in the assay on SN12C, in the assay on SK-MEL-28, with K562, in the assay on SF-295, in the assay with SK-MEL-2 and in the assay with HT-29 was > 100 µM (inactive) each time. Further, the GI50 in the assay with CAKI-1 was > 100 µM (inactive).

Turning to `Cc1ccc(N2C[N+](c3ccccc3)=NC(c3ccccc3)=N2)cc1`, the GI50 in the assay with NCI-H522 was > 10 µM (inactive); with SNB-78 it was > 10 µM (inactive); in the assay with U-251, 44.6 µM (inactive); in the assay on SNB-19, 39.2 µM (inactive); in the assay with HOP-62 it was > 100 µM (inactive); in the assay on SW-620 it was 51.8 µM (inactive). The GI50 was 62.2 µM (inactive) in the assay on SN12C; 55.7 µM (inactive) in the assay on SK-MEL-28; 23.2 µM (inactive) with K562; 61.7 µM (inactive) in the assay on SF-295; 39.3 µM (inactive) in the assay on HT-29; 71.9 µM (inactive) with A498.

Regarding `Cc1cc(O)nc(CNC(=O)c2cccc3ccccc23)n1`, the GI50 in the assay on NCI-H522, in the assay with SNB-78, with M14, in the assay with U-251, in the assay on SNB-19 and in the assay on SNB-75 was > 100 µM (inactive) each time. For the same molecule, the GI50 in the assay on HOP-62, with SW-620, in the assay with SN12C, with SK-MEL-28, with K562 and in the assay with SF-295 was > 100 µM (inactive) in each case. In addition, the GI50 in the assay with HT-29, in the assay with A498 and in the assay with CAKI-1 was > 100 µM (inactive) throughout.

As to `S=c1[nH]c2ccc(Br)cc2c(=S)n1-c1ccccc1`, the GI50 in the assay on SNB-78 was 49.3 µM (inactive); in the assay with M14, 20.7 µM (inactive); with U-251, 6.58 µM (inactive); with SNB-19, 5.85 µM (inactive); in the assay on SNB-75 it was 34.2 µM (inactive); in the assay on HOP-62 it was 24.4 µM (inactive). Also, the GI50 in the assay on SW-620 is 32.7 µM (inactive); with SN12C, 20.6 µM (inactive); in the assay on SK-MEL-28 it was 9.89 µM (inactive); in the assay on K562, 29.2 µM (inactive); with SF-295, 16.9 µM (inactive); in the assay with SK-MEL-2, 16.4 µM (inactive). Besides, the GI50 in the assay with HT-29 is 21.9 µM (inactive); with A498 it was 32.4 µM (inactive); in the assay with CAKI-1, 29.2 µM (inactive).

Consider `CS/C(C)=N/OC(=O)NCCCCNc1ccc(N=[N+]=[N-])cc1`, for which the GI50 was 4.76 µM (inactive) with NCI-H522; 82.6 µM (inactive) in the assay on SNB-78; 37.7 µM (inactive) in the assay with M14; 30.6 µM (inactive) in the assay on U-251; 66.4 µM (inactive) with SNB-19; 52.4 µM (inactive) with SNB-75. Also, the GI50 in the assay on HOP-62 was 48.2 µM (inactive); with SW-620 it was 58.5 µM (inactive); with SN12C it was 59.2 µM (inactive); in the assay on SK-MEL-28, 49.7 µM (inactive); in the assay on K562, 30.8 µM (inactive); in the assay on SF-295 it was 28.5 µM (inactive). Also, the GI50 in the assay on HT-29 was 46.2 µM (inactive); with A498, 47 µM (inactive); with CAKI-1, 36.5 µM (inactive).

With `CC(C)=CCC/C(=C/CC/C(C)=C/CCc1ccoc1)C(=O)O`, the GI50 in the assay on NCI-H522, in the assay with SNB-78, with M14, with U-251, in the assay on SNB-19 and in the assay with SNB-75 was > 100 µM (inactive) each time. Further, the GI50 in the assay on HOP-62, in the assay on SW-620, with SN12C, with SK-MEL-28, with K562 and in the assay with SF-295 was > 100 µM (inactive) each time. Moreover, the GI50 in the assay on SK-MEL-2, in the assay with HT-29 and in the assay with A498 was > 100 µM (inactive) throughout.

Take `COCC12CC(CC1=O)C1C2ON2c3ccccc3C(=O)C12c1ccccc1` (centres undefined): the GI50 in the assay on NCI-H522 is > 100 µM (inactive); in the assay on SNB-78 it was 68.7 µM (inactive); in the assay on M14, > 100 µM (inactive); in the assay on U-251, > 100 µM (inactive); in the assay on SNB-19, > 100 µM (inactive); in the assay on SNB-75, > 100 µM (inactive). For the same molecule, the GI50 is > 100 µM (inactive) in the assay with HOP-62; > 100 µM (inactive) with SW-620; > 100 µM (inactive) with SN12C; > 100 µM (inactive) in the assay with SK-MEL-28; 63.7 µM (inactive) in the assay on K562; > 100 µM (inactive) in the assay with SF-295. In addition, the GI50 in the assay with HT-29 and with A498 was > 100 µM (inactive) in each case.

Take `CSc1ccc(NC(=O)C2c3[nH]c4ccccc4c3C3CCC(C(C)(C)C)CC3C2C(=O)O)cc1` (centres undefined): the GI50 in the assay on NCI-H522 is 15 µM (inactive); with SNB-78 it was 17.2 µM (inactive); with M14, 18.4 µM (inactive); with U-251, 15 µM (inactive); in the assay on SNB-19, 30.5 µM (inactive); with SNB-75 it was 17.2 µM (inactive). Moreover, the GI50 in the assay with HOP-62 is 16.9 µM (inactive); with SW-620, 17.7 µM (inactive); in the assay with SN12C, 18.6 µM (inactive); in the assay with SK-MEL-28 it was 22.9 µM (inactive); with K562 it was 32.3 µM (inactive); with SF-295, 17.6 µM (inactive). Also, the figures for the GI50 in the assay on HT-29 and in the assay on A498 were 16.5 µM (inactive) and 17.9 µM (inactive), respectively.

As to `O=C(COc1ccc(Cl)cc1Cl)N/N=C/C=C/c1ccc([N+](=O)[O-])o1`, the GI50 with NCI-H522 was 1.04 µM (active); with NCI/ADR-RES it was 11.9 µM (inactive); in the assay with M14, 2.72 µM (inactive); in the assay on U-251, 15.7 µM (inactive); in the assay on SNB-19 it was 9.48 µM (inactive); in the assay with MDA-N it was 3.43 µM (inactive). In addition, the GI50 was 4.14 µM (inactive) in the assay on MCF7; 14.3 µM (inactive) in the assay with SNB-75; 15.1 µM (inactive) in the assay with HOP-62; 5.37 µM (inactive) with SW-620; 8.47 µM (inactive) in the assay on SN12C; 4.08 µM (inactive) in the assay with SK-MEL-28. Also, the GI50 is 4.43 µM (inactive) with K562; 23.3 µM (inactive) in the assay with SF-295; 2.63 µM (inactive) with MDA-MB-435; 3.27 µM (inactive) with SK-MEL-2; 7.01 µM (inactive) in the assay with HT-29; 11.5 µM (inactive) in the assay on A498. Also, the GI50 in the assay with CAKI-1 is > 100 µM (inactive).

On to `Cc1ccc(OP(=O)(Oc2ccc(C)cc2)N2C=Cc3ccccc3C2C#N)cc1` (centres undefined), for which the GI50 in the assay with NCI-H522 was 48.8 µM (inactive); in the assay on NCI/ADR-RES, > 100 µM (inactive); in the assay with M14, > 100 µM (inactive); in the assay on U-251 it was > 100 µM (inactive); in the assay with SNB-19, > 100 µM (inactive); in the assay on MDA-N, > 100 µM (inactive). Also, the GI50 in the assay with MCF7, with SNB-75, with HOP-62, in the assay on SW-620, with SN12C and with SK-MEL-28 was > 100 µM (inactive) throughout. The GI50 in the assay on K562, with SF-295, in the assay with MDA-MB-435, with SK-MEL-2, with HT-29 and in the assay on A498 was > 100 µM (inactive) in each case. Also, the GI50 with CAKI-1 is > 100 µM (inactive).

With `NS(=O)(=O)c1ccc(/N=N/c2ccc(O)c(O)c2)cc1`, the GI50 was 1.6 µM (inactive) in the assay on NCI-H522; 16.9 µM (inactive) in the assay with NCI/ADR-RES; 24.5 µM (inactive) in the assay with M14; 12.6 µM (inactive) in the assay with U-251; 21.8 µM (inactive) in the assay with SNB-19; 20.6 µM (inactive) with MDA-N. For the same molecule, the GI50 in the assay with MCF7 was 27.5 µM (inactive); in the assay on SNB-75 it was 25 µM (inactive); in the assay on HOP-62, 27.4 µM (inactive); with SW-620, 7.89 µM (inactive); in the assay on SN12C, 10.4 µM (inactive); in the assay on SK-MEL-28 it was 18.1 µM (inactive). The GI50 in the assay on K562 is 28.7 µM (inactive); in the assay on SF-295 it was 37 µM (inactive); with MDA-MB-435, 15.1 µM (inactive); in the assay on SK-MEL-2, 17.2 µM (inactive); in the assay on HT-29, 27.2 µM (inactive); in the assay on A498 it was 24.9 µM (inactive). Moreover, the GI50 in the assay with CAKI-1 was 36.2 µM (inactive).

On to `CC1=C(/C=C/C(C)=C/C=C/C(C)=C/C(=O)Nc2ccc(O)cc2)C(C)(C)CCC1` [FENRETINIDE], for which the GI50 in the assay on NCI-H522 was 0.929 µM (active); in the assay on NCI/ADR-RES, 2.71 µM (inactive); with M14, 4.92 µM (inactive); in the assay with U-251, 4.65 µM (inactive); with SNB-19, 6.5 µM (inactive); in the assay with MDA-N it was 2.75 µM (inactive). For the same molecule, the GI50 in the assay on MCF7 is 2.65 µM (inactive); in the assay on SNB-75, 7.03 µM (inactive); with HOP-62 it was 5.46 µM (inactive); in the assay with SW-620, 5.48 µM (inactive); in the assay with SN12C, 2.52 µM (inactive); in the assay on SK-MEL-28, 4.23 µM (inactive). In addition, the GI50 with K562 is 2.69 µM (inactive); in the assay on SF-295, 2.85 µM (inactive); with MDA-MB-435, 3.09 µM (inactive); in the assay with SK-MEL-2, 7.33 µM (inactive); in the assay on HT-29, 2.63 µM (inactive); in the assay on A498 it was 4.73 µM (inactive). Also, in the assay on CAKI-1, the GI50 was 5.06 µM (inactive).
